Reference: paper PMC5355302, “Arg-Leu-Tyr-Glu tetrapeptide inhibits tumor progression by suppressing angiogenesis and vascular permeability via VEGF receptor-2 antagonism” (Oncotarget, 2016)
Where a SMILES comes first, the peptide text is derived from it. Where no end group is shown, it is not given here.

How the values were obtained:
HCT116 tumors = test: HCT116 human colon cancer xenograft in nude mice; format: in vivo, mouse; details: RLYE 0.5 mg/kg/day i.p., CPT-11 17 mg/kg every 5th day, alone or combined, n = 7 per group
Description: Figure 7 RLYE inhibits tumor growth and metastasis by suppressing tumor angiogenesis A. Representative tumors isolated from 29-days-old B16F1 tumor-bearing C57BL/6J mice injected i.p. with saline or RLYE (1 mg/kg) every day. B. Tumor weight on day 29 after injection of B16F1 cells (n = 10 mice per group). C. […] D. Representative images for metastatic nodules of the lungs isolated from C57BL/6J mice, which were injected i.v. with B16F10 melanoma cells and treated with saline or RLYE for 3 weeks. E. Quantification of the number of lung metastatic nodules. […] Representative tumors from 30-day-old HCT116 tumor-bearing mice. (G) Tumor burden was measured every 3 days (n = 8 mice per group). (H) Functional vascularization was quantified by measuring hemoglobin concentration in HCT116 tumor tissues (n = 5). […]
Figure 8 RLYE inhibits vascular leakage and enhances tumor chemosensitivity A. Endothelial cell permeability was determined by diffusion of [^14C]-sucrose through HUVEC monolayers treated with 20 ng/ml of VEGF alone or in combination with RLYE (n = 3). B. Phosphorylation of VE-cadherin was determined in cell lysates of HUVECs treated with 20 ng/ml of VEGF alone or in combination with RLYE. […] Immunostaining of VE-cadherin in endothelial monolayer was determined by confocal microscopy. […] Tumor vascular leakage was determined by the Evans blue method (E and F) or FITC-dextran image assay (G and H). […]

HUVECs [1] = test: MTT cell viability, HUVECs; format: cell-based, human; details: 24 h
Description: (§1) Mouse melanoma B16F1 and B16F10 cells and human HCT116 colon cancer cells were obtained from American Type Culture Collection (Manassas, VA) and cultured in RPMI medium supplemented with 10% FBS, 1 mM sodium pyruvate, 10 mM 4-(2-hydroxyethyl)-1-piperazineethanesulfonic acid, and 100 U/ml penicillin-streptomycin in a humidified atmosphere of 5% CO2 at 37°C. Human umbilical vein endothelial cells (HUVECs) were maintained and cultured in M199 as described previously, and only passages 2-7 were used for all experiments. Human multiple myeloma IM-9 and RPMI 8226 cells were obtained from Korean Cell Line Bank (Seoul, Korea). The cells were cultured in RPMI-1640 medium in a humidified CO2 incubator. Cell viability or cytotoxicity was evaluated by 3-[4,5-cimethylthiazol-2-yl]-2,5-diphenyl tetrazolium bromide (MTT, Sigma-Aldrich) assay.
(§2) www.impactjournals.com/oncotarget/ Oncotarget, Supplementary Materials 2016
(§3) B. cells were treated the indicated concentration of RLYE for 24 h. Cell viability was determined by MTT assay. […]

HCT116 cells = test: MTT cell viability, HCT116 cells; format: cell-based, human; details: up to 30 nM, 24 h
Description: as §1, §2, §3

half-life in blood = format: in vivo; details: unpublished data
[2] = half-life in culture medium; format: in vitro ADME; details: M199 culture medium with 10% heat-inactivated FBS; unpublished data
HUVECs [3] = test: FACS binding of FITC-conjugated RLYE to HUVECs; design: species or system human; details: FITC-conjugated RLYE 15 nM, n = 5
Description: (§4) Figure 5 RLYE binds to endothelial cells through binding to VEGFR-2 A and B. HUVECs were incubated with FITC-conjugated RLYE (RL, 15 nM) before or after treatment with VEGF-A (VE, 100 ng) for 30 min. Cells were analyzed by flow cytometry (A) and quantified (B). Data are the means ± SD (n = 5). **P < 0.01 versus RLYE alone. C and D. HUVEC lysates were incubated with biotinylated RLYE (Bio-RLYE, 0.15 or 1.5 nM), followed by precipitation with streptavidin-agarose beads. The red arrow indicates VEGFR-2 protein bands on a longer exposure film. The precipitates were separated by SDS-PAGE. VEGFR-2 or VEGFR-1 expression was assessed by Western blot analysis. E. HUVECs were treated with or without VEGF-A (10 ng/ml) for 30 min, followed by incubation with FITC-conjugated RLYE (100 ng/ml, green). Cells were incubated with a TRITC-conjugated CD31 antibody (1:100, red) or DAPI (blue). Confocal microscopy was performed for analyzing binding of RLYE on HUVECs. Scale bar, 10 μm.
HUVECs cultured for 24 h after plating in 60 mm-culture dishes. Cells from subconfluent cultures were gently detached from wells with PBS containing 5 mM EDTA, washed three times with PBS, and resuspended in PBS containing 2% FBS/0.1% bovine serum albumin. Thereafter, they were incubated with FITC-conjugated RLYE (15 nM) before or after treatment with VEGF (100 ng/ml) for 30 min on ice, fixed in 2% paraformaldehyde, and analyzed by flow cytometry in a fluorescence-activated cell sorter (FACSCalibur, Becton Dickinson, Franklin Lakes, NJ).

HUVECs [4] = test: confocal microscopy of FITC-RLYE binding to HUVECs; design: species or system human
Description: as §4, with “Confocal microscopy was performed for analyzing binding of RLYE on HUVECs. Scale bar, 10 μm.” left out
For immunocytochemistry, HUVECs were grown to confluence on glass coverslips coated with 2% gelatin and treated with or without VEGF-A (10 ng/ml) for 30 min, followed by incubation with FITC-RLYE (100 ng/ml). […] Images were photographed and analyzed using a confocal fluorescence microscope. Nuclear staining was performed with 4’, 6-diamidino-2-phenylindole (DAPI, 1 ng/ml), and apoptotic cells were detected using a terminal deoxynucleotidyl transferase dUTP nick end labeling (TUNEL) kit (Roche, Korea).

endothelial cells = test system: endothelial cells; design: method as in PMID 15013002; details: cited from earlier work
VEGF-A [5] = details: cited from earlier work
From the text: Therefore, the VEGF-A/VEGFR-2 system is widely considered a main target of the therapeutic treatment for tumor angiogenesis. Ligation of VEGFR-2 triggers strong proangiogenic signals including p38MAPK/ERK, Src/FAK, and Akt/eNOS through VEGFR-2 phosphorylation, which promote angiogenesis and VEGFR-2 internalization.

VEGF-A [6] = details: read-out: IC50 for VEGF-A; endothelial cell culture conditions; cited from earlier work
VEGFR-2 = details: read-out: IC50 for VEGFR-2; endothelial cell culture conditions; cited from earlier work
[7] = target: human recombinant VEGF receptor-2 (rhVEGFR-2) (human) (UniProt P35968); test: SPR; rhVEGFR-2 immobilised on an activated CM5 chip; RLYE at different concentrations flowed in HBS-EP (10 mM Hepes, 150 mM NaCl, 3 mM EDTA, 0.005% Tween-20) at 25 μl/min, 120 sec injection; Kd from a steady state binding model
Chain of human recombinant VEGF receptor-2 (rhVEGFR-2) (human) (P35968 20-764): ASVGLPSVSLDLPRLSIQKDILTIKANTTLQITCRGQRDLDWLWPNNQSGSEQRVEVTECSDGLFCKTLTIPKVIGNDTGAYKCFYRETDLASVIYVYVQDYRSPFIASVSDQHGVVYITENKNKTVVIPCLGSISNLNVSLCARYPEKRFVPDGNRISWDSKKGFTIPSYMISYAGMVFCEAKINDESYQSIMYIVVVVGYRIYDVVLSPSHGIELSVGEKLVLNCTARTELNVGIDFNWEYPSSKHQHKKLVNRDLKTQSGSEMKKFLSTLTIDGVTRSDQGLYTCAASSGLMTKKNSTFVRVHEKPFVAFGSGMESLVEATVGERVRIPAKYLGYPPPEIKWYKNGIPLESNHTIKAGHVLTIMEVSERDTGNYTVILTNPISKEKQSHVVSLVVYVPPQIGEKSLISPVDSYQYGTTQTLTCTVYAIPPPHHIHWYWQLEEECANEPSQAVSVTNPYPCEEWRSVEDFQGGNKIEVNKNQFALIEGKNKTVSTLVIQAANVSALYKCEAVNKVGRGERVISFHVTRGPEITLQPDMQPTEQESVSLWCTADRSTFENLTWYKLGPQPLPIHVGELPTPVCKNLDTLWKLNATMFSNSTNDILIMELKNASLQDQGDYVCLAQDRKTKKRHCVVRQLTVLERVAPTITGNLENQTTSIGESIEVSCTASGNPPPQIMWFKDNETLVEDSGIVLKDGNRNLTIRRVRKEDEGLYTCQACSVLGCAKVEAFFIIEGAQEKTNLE

## CCc1c2c(nc3ccc(OC(=O)N4CCC(N5CCCCC5)CC4)cc13)-c1cc3c(c(=O)n1C2)COC(=O)[C@]3(O)CC [CPT-11, irinotecan]
HCT116 tumors
  tumor growth in mice bearing HCT116 colon tumor: significantly inhibited tumor growth

## CC(C)C[C@H](NC(=O)[C@@H](N)CCCNC(=N)N)C(=O)N[C@@H](Cc1ccc(O)cc1)C(=O)N[C@@H](CCC(=O)O)C(=O)O [RLYE, Arg-Leu-Tyr-Glu] (H-RLYE-OH)
HUVECs [1]
  cytotoxicity against HUVECs: did not induce any cytotoxicity
HCT116 cells
  cytotoxic effect on cultured HCT116 cells: no cytotoxic effect
half-life in blood
  half-life in blood: 1.2 h
[2]
  half-life: > 18 h

## FITC-conjugated RLYE: fluorescein isothiocynate (FITC)-conjugated RLYE, purchased from Peptron (also: FITC conjugated, position not given here)
HUVECs [3]; 30 min on ice, flow cytometry
  binding to the surface of control HUVECs: bound
HUVECs [3]; VEGF 100 ng/ml after the peptide
  blocking of binding to HUVECs by post-incubation with VEGF-A: not
HUVECs [3]; VEGF 100 ng/ml before the peptide
  binding to HUVECs after pre-incubation with VEGF-A: blocked
HUVECs [4]; FITC-conjugated RLYE 100 ng/ml
  binding to the surface of HUVECs (confocal): bound
HUVECs [4]; VEGF-A 10 ng/ml 30 min, then FITC-conjugated RLYE 100 ng/ml
  binding to the surface of HUVECs after pretreatment with VEGF-A (confocal): effectively blocked

## Lys-Leu-Tyr-Asp [KLYD, tetrapeptide derived from the kringle 5 of plasminogen]
Endothelial cells
  inhibitory effect on endothelial cell proliferation: potent inhibitory effect

## aflibercept: soluble decoy VEGFR-1
VEGF-A [5]
  affinity to VEGF-A relative to bevacizumab: several hundred-fold greater

## bevacizumab: anti-VEGF antibody
VEGF-A [6]
  IC50: 0.15 nM

## ramucirumab: fully humanized monoclonal antibody bound to the extracellular domain of VEGFR-2
VEGFR-2
  IC50: 1 to 2 nM

## RLYE [Arg-Leu-Tyr-Glu tetrapeptide (RLYE)]
[7]
  Kd: 9000 nM
